Data from patent US7138361B2, “Herbicidal heterocycles” (E. I. du Pont de Nemours and Company, priority 2000, dated 2006).

What was measured:
Assay type in all cases: in vivo
Nightshade = assay: Test C preemergence; details: Rate 500 g/ha, visual evaluation after 12 to 14 days
[1] = system: Surinam grass (Brachiaria decumbens); assay: Test B postemergence
Method in brief: (§1)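 Seeds were planted and sprayed preemergence with test chemical in a non-phytotoxic solvent mixture containing surfactant; postemergence plants (2 to 18 cm, 1- to 4-leaf stage) received the same formulation. Greenhouse hold 13 to 15 days, then visual rating versus untreated controls on a 0–100 scale (0 no effect, 100 complete control).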

[2] = system: blackgrass (Alopecurus myosuroides); assay: Test B postemergence
Method in brief: as §1

[3] = system: barnyardgrass (Echinochloa crus-galli); assay: Test B postemergence
Method in brief: as §1

[4] = system: pigweed (Amaranthus retroflexus); assay: Test B postemergence; details: Rate 125 g/ha, scale 0 to 100, 0 no effect, 100 complete control
Method in brief: as §1

[5] = system: morning glory (Ipomoea hederacea); assay: Test B postemergence; details: Rate 125 g/ha, scale 0 to 100, 0 no effect, 100 complete control
Method in brief: as §1

[6] = system: crabgrass (Digitaria sanguinalis); assay: Test B postemergence; details: Rate 125 g/ha, scale 0 to 100, 0 no effect, 100 complete control
Method in brief: as §1

[7] = system: cocklebur (Xanthium strumarium); assay: Test B postemergence
Method in brief: as §1

[8] = system: lambsquarters (Chenopodium album); assay: Test B postemergence; details: Rate 125 g/ha, scale 0 to 100, 0 no effect, 100 complete control
Method in brief: as §1

wild oat (Avena fatua) = assay: Test B postemergence; details: Rate 125 g/ha, scale 0 to 100, 0 no effect, 100 complete control
Method in brief: as §1

[9] = system: giant foxtail (Setaria faberii); assay: Test B preemergence
Method in brief: as §1

[10] = system: Surinam grass (Brachiaria decumbens); assay: Test B preemergence
Method in brief: as §1

corn (Zea mays) = assay: Test B preemergence
Method in brief: as §1

[11] = system: barnyardgrass (Echinochloa crus-galli); assay: Test B preemergence
Method in brief: as §1

[12] = system: pigweed (Amaranthus retroflexus); assay: Test B preemergence
Method in brief: as §1

[13] = system: morning glory (Ipomoea hederacea); assay: Test B preemergence
Method in brief: as §1

[14] = system: crabgrass (Digitaria sanguinalis); assay: Test B preemergence
Method in brief: as §1

rice (Oryza saliva) [15] = assay: Test B preemergence
Method in brief: as §1

[16] = system: cocklebur (Xanthium strumarium); assay: Test B preemergence
Method in brief: as §1

[17] = system: velvetleaf (Abutilon theophrasti); assay: Test B preemergence
Method in brief: as §1

[18] = system: lambsquarters (Chenopodium album); assay: Test B preemergence
Method in brief: as §1

[19] = system: barnyardgrass (Echinochloa crus-galli); assay: Test C flooded paddy test; details: for Barnyardgrass plant response rating: Flooded Paddy, scale 0 to 100, 0 no effect, 100 complete control; for Plant response rating, Barnyardgrass / Plant response rating (scale 0 to 100), Barnyardgrass: flooded paddy test; for Plant response rating, Barnyardgrass: scale 0 to 100 (0 no effect, 100 complete control)
Method in brief: (§2)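 Ratings come from visual comparison with control plants after 12 to 14 days in the greenhouse. Each species was at the 2-leaf stage when the flooded paddy was treated. Scores run from 0, meaning no effect, to 100, meaning complete control.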

[20] = system: smallflower flatsedge (Cyperus difformis); assay: Test C flooded paddy test; details: for Flatsedge plant response rating: Flooded Paddy, scale 0 to 100, 0 no effect, 100 complete control; for Plant response rating, Flatsedge / Plant response rating (scale 0 to 100), Flatsedge: flooded paddy test; for Plant response rating, Flatsedge: scale 0 to 100 (0 no effect, 100 complete control)
Method in brief: as §2

[21] = system: duck salad (Heteranthera limosa); assay: Test C flooded paddy test; details: for Ducksalad plant response rating: Flooded Paddy, scale 0 to 100, 0 no effect, 100 complete control; for Plant response rating, Ducksalad / Plant response rating (scale 0 to 100), Ducksalad: flooded paddy test; for Plant response rating, Ducksalad: scale 0 to 100 (0 no effect, 100 complete control)
Method in brief: as §2

rice (Oryza saliva) [22] = assay: Test C flooded paddy test; details: for Rice plant response rating: Flooded Paddy, scale 0 to 100, 0 no effect, 100 complete control; for Plant response rating, Rice / Plant response rating (scale 0 to 100), Rice: flooded paddy test; for Plant response rating, Rice: scale 0 to 100 (0 no effect, 100 complete control)
Method in brief: as §2

Sunflower = assay: Test C preemergence; details: Rate 250 g/ha, scale 0 to 100, 0 no effect, 100 complete control
[23] = Rate 125 g/ha, scale 0 to 100, 0 no effect, 100 complete control
[24] = Rate 500 g/ha, scale 0 to 100, 0 is no effect, 100 is complete control, 13 to 15 days
[25] = Preemergence, Rate 500 g/ha, scale 0 to 100, 0 no effect, 100 complete control
[26] = preemergence, Rate 125 g/ha, scale of 0 to 100 where 0 is no effect and 100 is complete control, 13 to 15 days
[27] = Rate 16 g/ha, visually evaluated after 12 to 14 days, 0 = no effect, 100 = complete control
[28] = Rate 62 g/ha, visually evaluated after 12 to 14 days, 0 = no effect, 100 = complete control
[29] = under head Rate 16 g/ha, (own rate not given), after 12 to 14 days

SMILES: CCC(CC)c1ccn(C2OCN(c3cccc(OC(F)F)c3)C2=O)n1 (stereo not drawn) [Compound 131]
- Plant response rating (0 to 100), Nightshade (Nightshade): 100
- Plant response rating, Surinam grass [1, 23]: 0
- Plant response rating, Surinam grass [1, 24]: 30
- Plant response rating, Blackgrass [2, 23]: 0
- Plant response rating, Blackgrass [2, 24]: 0
- Plant response rating, Barnyardgrass [3, 23]: 80
- Plant response rating, Barnyardgrass [3, 24]: 100
- Plant response rating, Pigweed [4]: 80
- Plant response rating, Morningglory [5]: 20
- Plant response rating, Crabgrass [6]: 0
- Plant response rating, Cocklebur [7, 23]: 30
- Plant response rating, Cocklebur [7, 24]: 70
- Plant response rating, Lambsquarters [8]: 90
- Plant response rating, Wild Oat (wild oat (Avena fatua)): 20
- Plant response rating, Foxtail, Giant [9, 25]: 100
- Plant response rating, Foxtail, Giant [9, 26]: 100
- Plant response rating, Surinam grass [10, 25]: 100
- Plant response rating, Surinam grass [10, 26]: 100
- Plant response rating, Corn (corn (Zea mays); [25]): 50
- Plant response rating, Corn (corn (Zea mays); [26]): 40
- Plant response rating, Barnyardgrass [11, 25]: 100
- Plant response rating, Barnyardgrass [11, 26]: 100
- Plant response rating, Pigweed [12, 25]: 100
- Plant response rating, Pigweed [12, 26]: 100
- Plant response rating, Morningglory [13, 25]: 90
- Plant response rating, Morningglory [13, 26]: 0
- Plant response rating, Crabgrass [14, 25]: 100
- Plant response rating, Crabgrass [14, 26]: 100
- Plant response rating, Rice (rice (Oryza saliva) [15]; [25]): 100
- Plant response rating, Rice (rice (Oryza saliva) [15]; [26]): 70
- Plant response rating, Cocklebur [16, 25]: 30
- Plant response rating, Cocklebur [16, 26]: 0
- Plant response rating, Velvetleaf [17, 25]: 40
- Plant response rating, Velvetleaf [17, 26]: 0
- Plant response rating, Lambsquarters [18, 25]: 100
- Plant response rating, Lambsquarters [18, 26]: 100
- Barnyardgrass plant response rating ([19]; Rate 250 g/ha): 100
- Barnyardgrass plant response rating ([19]; Rate 500 g/ha): 100
- Plant response rating, Barnyardgrass ([19]; Rate 125 g/ha): 100
- Plant response rating (scale 0 to 100), Barnyardgrass [19, 27]: 60
- Plant response rating (scale 0 to 100), Barnyardgrass [19, 28]: 100
- Plant response rating (scale 0 to 100), Barnyardgrass [19, 29]: 50
- Flatsedge plant response rating ([20]; Rate 250 g/ha): 100
- Flatsedge plant response rating ([20]; Rate 500 g/ha): 100
- Plant response rating, Flatsedge ([20]; Rate 125 g/ha): 100
- Plant response rating (scale 0 to 100), Flatsedge [20, 27]: 90
- Plant response rating (scale 0 to 100), Flatsedge [20, 28]: 90
- Plant response rating (scale 0 to 100), Flatsedge [20, 29]: 90
- Ducksalad plant response rating ([21]; Rate 250 g/ha): 100
- Ducksalad plant response rating ([21]; Rate 500 g/ha): 100
- Plant response rating, Ducksalad ([21]; Rate 125 g/ha): 100
- Plant response rating (scale 0 to 100), Ducksalad [21, 27]: 70
- Plant response rating (scale 0 to 100), Ducksalad [21, 28]: 80
- Plant response rating (scale 0 to 100), Ducksalad [21, 29]: 20
- Rice plant response rating (rice (Oryza saliva) [22]; Rate 250 g/ha): 80
- Rice plant response rating (rice (Oryza saliva) [22]; Rate 500 g/ha): 90
- Plant response rating, Rice (rice (Oryza saliva) [22]; Rate 125 g/ha): 15
- Plant response rating (scale 0 to 100), Rice (rice (Oryza saliva) [22]; [27]): 0
- Plant response rating (scale 0 to 100), Rice (rice (Oryza saliva) [22]; [28]): 0
- Plant response rating (scale 0 to 100), Rice (rice (Oryza saliva) [22]; [29]): 0
- Plant response rating, Sunflower (Sunflower): 20

SMILES: CCCC(C)c1ccn(C2OCN(c3cccc(OC(F)F)c3)C2=O)n1 (stereo not drawn) [Compound 132]
- Plant response rating (0 to 100), Nightshade (Nightshade): 20
- Plant response rating, Surinam grass [1, 23]: 0
- Plant response rating, Surinam grass [1, 24]: 0
- Plant response rating, Blackgrass [2, 23]: 0
- Plant response rating, Blackgrass [2, 24]: 0
- Plant response rating, Barnyardgrass [3, 23]: 0
- Plant response rating, Barnyardgrass [3, 24]: 30
- Plant response rating, Pigweed [4]: 0
- Plant response rating, Morningglory [5]: 0
- Plant response rating, Crabgrass [6]: 0
- Plant response rating, Cocklebur [7, 23]: 0
- Plant response rating, Cocklebur [7, 24]: 0
- Plant response rating, Lambsquarters [8]: 70
- Plant response rating, Wild Oat (wild oat (Avena fatua)): 0
- Plant response rating, Foxtail, Giant [9, 25]: 100
- Plant response rating, Foxtail, Giant [9, 26]: 100
- Plant response rating, Surinam grass [10, 25]: 100
- Plant response rating, Surinam grass [10, 26]: 80
- Plant response rating, Corn (corn (Zea mays); [25]): 0
- Plant response rating, Corn (corn (Zea mays); [26]): 0
- Plant response rating, Barnyardgrass [11, 25]: 100
- Plant response rating, Barnyardgrass [11, 26]: 100
- Plant response rating, Pigweed [12, 25]: 100
- Plant response rating, Pigweed [12, 26]: 70
- Plant response rating, Morningglory [13, 25]: 0
- Plant response rating, Morningglory [13, 26]: 0
- Plant response rating, Crabgrass [14, 25]: 100
- Plant response rating, Crabgrass [14, 26]: 100
- Plant response rating, Rice (rice (Oryza saliva) [15]; [25]): 50
- Plant response rating, Rice (rice (Oryza saliva) [15]; [26]): 0
- Plant response rating, Cocklebur [16, 25]: 30
- Plant response rating, Cocklebur [16, 26]: 0
- Plant response rating, Velvetleaf [17, 25]: 30
- Plant response rating, Velvetleaf [17, 26]: 0
- Plant response rating, Lambsquarters [18, 25]: 100
- Plant response rating, Lambsquarters [18, 26]: 100
- Barnyardgrass plant response rating ([19]; Rate 500 g/ha): 100
- Plant response rating, Barnyardgrass ([19]; Rate 125 g/ha): 70
- Plant response rating, Barnyardgrass ([19]; Rate 250 g/ha): 100
- Plant response rating (scale 0 to 100), Barnyardgrass [19, 28]: 40
- Flatsedge plant response rating ([20]; Rate 500 g/ha): 90
- Plant response rating, Flatsedge ([20]; Rate 125 g/ha): 90
- Plant response rating, Flatsedge ([20]; Rate 250 g/ha): 90
- Plant response rating (scale 0 to 100), Flatsedge [20, 28]: 90
- Ducksalad plant response rating ([21]; Rate 500 g/ha): 80
- Plant response rating, Ducksalad ([21]; Rate 125 g/ha): 20
- Plant response rating, Ducksalad ([21]; Rate 250 g/ha): 40
- Plant response rating (scale 0 to 100), Ducksalad [21, 28]: 0
- Rice plant response rating (rice (Oryza saliva) [22]; Rate 500 g/ha): 90
- Plant response rating, Rice (rice (Oryza saliva) [22]; Rate 125 g/ha): 20
- Plant response rating, Rice (rice (Oryza saliva) [22]; Rate 250 g/ha): 20
- Plant response rating (scale 0 to 100), Rice (rice (Oryza saliva) [22]; [28]): 0
- Plant response rating, Sunflower (Sunflower): 20
